{
  "source": "patent EP4813383A1",
  "about": "“USE OF TAFAMIDIS AND PHARMACEUTICALLY ACCEPTABLE SALT THEREOF IN PREVENTION, ALLEVIATION, OR TREATMENT OF DISEASES ASSOCIATED WITH HIF-2a” (Huaya Jiyuan (Shenzhen) Pharmaceutical Co., Ltd., priority 2024, dated 2025)",
  "key": {"[1]": {"tested_on": "Cisplatin-induced renal injury and anemia rat model", "test": "Cisplatin-induced renal injury and anemia rat model", "assay_type": "in vivo, Male Sprague-Dawley (SD) rats", "conditions": "10 mg/kg daily oral for four weeks, kidney sections"}, "HIF-2α": {"target": "T1, HIF-2α (Homo sapiens, UniProt Q99814)", "T1 construct": "786-O is a renal carcinoma cell line that predominantly expresses HIF-2α and lacks functional HIF-1α; endogenous in cells; host or cells: 786-O cells stably carrying an HRE-driven luciferase reporter", "T1 sequence (Q99814 whole entry)": "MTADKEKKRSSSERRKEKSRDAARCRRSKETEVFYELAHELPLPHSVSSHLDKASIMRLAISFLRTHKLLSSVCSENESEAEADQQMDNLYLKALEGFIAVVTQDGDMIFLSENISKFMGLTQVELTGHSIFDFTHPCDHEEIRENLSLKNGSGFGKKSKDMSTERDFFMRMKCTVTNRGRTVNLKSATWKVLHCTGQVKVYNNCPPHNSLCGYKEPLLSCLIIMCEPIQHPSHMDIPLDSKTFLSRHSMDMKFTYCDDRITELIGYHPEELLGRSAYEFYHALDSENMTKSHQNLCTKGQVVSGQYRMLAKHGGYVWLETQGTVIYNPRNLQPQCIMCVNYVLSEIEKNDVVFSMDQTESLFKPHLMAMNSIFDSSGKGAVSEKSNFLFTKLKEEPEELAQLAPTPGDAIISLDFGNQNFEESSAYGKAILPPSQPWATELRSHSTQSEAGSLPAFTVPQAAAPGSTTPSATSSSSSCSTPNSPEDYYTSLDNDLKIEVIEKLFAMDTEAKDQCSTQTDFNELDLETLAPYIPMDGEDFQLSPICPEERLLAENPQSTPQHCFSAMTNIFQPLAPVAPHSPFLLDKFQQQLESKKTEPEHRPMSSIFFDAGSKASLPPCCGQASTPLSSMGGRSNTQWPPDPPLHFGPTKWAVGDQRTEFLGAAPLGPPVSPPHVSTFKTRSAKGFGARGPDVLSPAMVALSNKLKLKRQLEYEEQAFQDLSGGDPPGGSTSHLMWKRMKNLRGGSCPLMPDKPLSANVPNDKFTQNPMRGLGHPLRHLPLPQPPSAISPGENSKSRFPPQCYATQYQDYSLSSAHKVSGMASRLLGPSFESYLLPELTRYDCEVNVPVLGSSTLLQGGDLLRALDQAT", "T1 sequence (P27540 whole entry partner)": "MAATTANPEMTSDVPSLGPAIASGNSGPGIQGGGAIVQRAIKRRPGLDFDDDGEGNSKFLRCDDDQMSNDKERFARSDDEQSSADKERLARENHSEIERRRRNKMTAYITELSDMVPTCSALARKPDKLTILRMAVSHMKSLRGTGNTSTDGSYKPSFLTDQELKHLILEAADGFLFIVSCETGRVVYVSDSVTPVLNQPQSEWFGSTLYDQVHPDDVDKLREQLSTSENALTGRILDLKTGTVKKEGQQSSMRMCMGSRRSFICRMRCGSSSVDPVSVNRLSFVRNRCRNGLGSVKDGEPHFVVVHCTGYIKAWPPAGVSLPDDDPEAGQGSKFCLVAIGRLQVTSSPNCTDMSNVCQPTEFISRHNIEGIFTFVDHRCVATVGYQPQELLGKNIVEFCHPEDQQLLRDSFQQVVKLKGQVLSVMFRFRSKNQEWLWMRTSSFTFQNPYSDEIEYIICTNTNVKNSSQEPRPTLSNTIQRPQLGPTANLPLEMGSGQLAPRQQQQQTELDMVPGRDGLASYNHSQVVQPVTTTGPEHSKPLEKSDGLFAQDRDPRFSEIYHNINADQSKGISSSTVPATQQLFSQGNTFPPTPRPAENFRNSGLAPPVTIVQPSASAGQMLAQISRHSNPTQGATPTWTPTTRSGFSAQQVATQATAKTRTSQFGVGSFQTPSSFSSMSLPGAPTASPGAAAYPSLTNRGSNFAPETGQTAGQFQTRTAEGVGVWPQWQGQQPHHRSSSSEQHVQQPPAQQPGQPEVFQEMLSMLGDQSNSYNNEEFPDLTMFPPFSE", "test": "Luciferase reporter gene assay (HRE-driven luciferase in stably transfected 786-O cells)", "assay_type": "cell-based", "text": "Experimental principles: 786-O is a renal carcinoma cell line that predominantly expresses HIF-2α and lacks functional HIF-1α. This characteristic makes 786-O cells an ideal model for studying HIF-2α transcriptional activity and related signaling pathways. In the luciferase reporter gene assay, a 786-O monoclonal cell line that stably expresses hypoxia response element (HRE)-driven luciferase (Luc) activity is obtained through puromycin selection. The HIF-2α agonist promotes dimerization of HIF-2α and HIF-β, and activates an HRE promoter. By measuring fluorescence intensity, luciferase activity can be determined, thereby assessing the ability of the HIF-2α agonist to promote transcription.\nExperimental method: A total of 6000 stably transfected 786-O cells stably containing HRE and Luc sequences are seeded in each well of a 96-well plate, and 100 µL of RPMI-1640 culture medium containing 10% fetal bovine serum is added to each well. After 24 hours, a compound at a corresponding concentration is added to each well. A blank group is set as a control. Only a DMSO solvent is added in the well of the blank group. For initial compound screening, both tafamidis and tafamidis meglumine are tested at two concentrations: 2 µM and 20 µM. For concentration-gradient determination, each concentration is tested in triplicate. After co-incubation for 24 hours, the culture medium is discarded, and 20 µL of firefly luciferase reporter gene cell lysis buffer (RG126M, Beyotime) is added to each well. The 96-well plate is shaken on a microplate shaker for 10 minutes. After shaking, 10 µL of lysate is transferred into a white opaque plate, and then 10 µL of Steady-Lumi™ firefly luciferase assay reagent (RG058S, Beyotime) is added to each well. Finally, luminescence is measured using a microplate reader (Agilent Synergy Neo2). E20 represents the effect of the compound at a 20 µM concentration, and is calculated as: E20 = fluorescence value of the 20 µM well ÷ fluorescence value of the blank control × 100%. E2 represents the effect of the compound at a 2 µM concentration, and is calculated as: E2 = fluorescence value of the 2 µM well ÷ fluorescence value of the blank control × 100%. EC50 is the compound concentration at which the agonistic efficacy is increased by 50% relative to the blank control. The agonistic efficacy of a compound is determined by calculating the concentration (EC50) required to achieve a 50% increase in the fluorescence activity relative to the blank control and a maximum activation percentage (Emax). The maximum activation percentage (Emax) of an agonist refers to a ratio, expressed as a percentage, of the fluorescence value corresponding to the maximal effect (observed maximal response) induced when the agonist concentration reaches receptor-binding saturation in a particular receptor system, to the fluorescence value of the receptor system in the absence of agonist. In this experiment, Vyndaqel is directly used in place of tafamidis meglumine."}, "[2]": {"tested_on": "aristolochic acid-induced zebrafish model", "test": "Aristolochic acid-induced zebrafish model: cardiac erythrocyte staining intensity (renal anemia)", "assay_type": "in vivo, Wild-type AB strain zebrafish", "conditions": "30 hours, normal group 100%, model group 46%", "description": "Wild-type AB strain zebrafish at 2 days post-fertilization are randomly selected and placed in a 6-well plate, with 30 zebrafish treated in each well (treatment group). Other than the normal control group, all treatment groups are exposed to aristolochic acid in aqueous solution to establish a zebrafish renal anemia model. After treatment at 28 °C for 18 hours, a normal control group and a model control group are set up simultaneously. Tafamidis samples are administered in aqueous solution to the treatment groups separately (at concentrations of 0.1 µM and 1 µM separately). Water is administered to the normal control group and the model control group correspondingly, with a volume of 3 mL per well. After continued treatment at 28 °C for 30 hours, staining is performed using o-dianisidine. After staining, 10 zebrafish are randomly selected from each treatment group and photographed under a dissecting microscope. Data is collected using NIS-Elements D 3.20 advanced image processing software, and the staining intensity of cardiac erythrocytes in the zebrafish is analyzed. The statistical significance of this indicator is used to evaluate the efficacy of the sample in alleviating renal anemia. Statistical analysis is performed using SPSS 26.0 software, and p < 0.05 indicates a statistically significant difference."}, "[3]": {"tested_on": "erythropoietin (EPO) gene expression", "test": "qRT-PCR assay of EPO gene expression in 786-O renal carcinoma cells", "assay_type": "cell-based", "conditions": "20 µM, 24 hours, relative to the vehicle, GAPDH internal control", "description": "Experimental method: 786-O renal carcinoma cells are seeded into a 12-well plate. After 24 hours, tafamidis is added at different concentrations (1 µM, 10 µM, and 20 µM, separately), and the cells are co-incubated with the compound for 24 hours. No treatment is applied to the vehicle group. RNA is extracted using a TRIZOL reagent. cDNA transcription is performed using an All-in-one™ First-Strand cDNA Synthesis Kit (for specific operating procedures, see the manufacturer's instructions). A SYBR reagent is used for fluorescence signal detection, and GAPDH is used as an internal control. The qRT-PCR primers are as follows: • GAPDH_fwd, […]; • GAPDH_rev, TGGTGAAGACGCCAGTGGA; • VEGF_fwd, […]; • VEGF_rev, […]; • EPO_fwd, […]; • EPO_rev, […]."}},
  "data": [
    {"smiles": "O=C(O)c1ccc2nc(-c3cc(Cl)cc(Cl)c3)oc2c1", "note": "[tafamidis, 2-(3,5-dichlorophenyl)-1,3-benzoxazole-6-carboxylic acid]", "values": [
      {"measurement": "α-smooth muscle actin (α-SMA) protein levels, immunohistochemical", "setting": "[1]", "value": "significantly reduces"},
      {"measurement": "agonistic efficacy at a 2 µM concentration (E2)", "setting": "HIF-2α; 2 µM, 24 hours co-incubation, fluorescence value as % of blank control (DMSO)", "value": 142, "unit": "%"},
      {"measurement": "agonistic efficacy at a 20 µM concentration (E20)", "setting": "HIF-2α; 20 µM, 24 hours co-incubation, fluorescence value as % of blank control (DMSO)", "value": 207, "unit": "%"},
      {"measurement": "Emax", "setting": "HIF-2α; 786-0, read-out: Emax (maximum activation percentage), maximal response as % of fluorescence without agonist", "value": 225, "unit": "%"},
      {"measurement": "EC50", "setting": "HIF-2α; concentration required for a 50% increase in fluorescence activity relative to the blank control, 24 hours, read-out: EC50", "value": 1110, "unit": "nM"},
      {"measurement": "cardiac red blood cell count", "setting": "[2]; 0.1 µM in aqueous solution", "value": 60, "unit": "%"},
      {"measurement": "cardiac red blood cell count", "setting": "[2]; 1 µM in aqueous solution", "value": 65, "unit": "%"},
      {"measurement": "upregulates erythropoietin (EPO) gene expression", "setting": "[3]", "value": 0.9, "unit": "fold"}
    ]}
  ]
}
